Experimental data taken from patent US6046340A, “Imidazole containing pseudodipeptide product and compositions containing the same” (Exsymol Societe Anonyme Monegasque, priority 1993, dated 2000).

Key:
[1] = Inhibitory power on the hydroxyl radical (deoxyribose oxidation, EDTA/iron, H2O2, thiobarbituric acid/MDA detection); type: biochemical; settings: antioxidant 10 mM; deoxyribose substrate
From the text: Experimental procedure described by J. M. C. Gutteridge in Biochemistry Journal, vol 224 (1984), p. 761-767: oxidation substrate: deoxyribose, system of production of the hydroxyl radical OH.:
Detection: thiobarbituric acid/mondialdehyde (MDA)
Antioxidant of reference: dipeptide β-alanyl-L-histidine (sensitive to enzymatic deactivation)

[2] = Inhibitory power on the superoxide anion (xanthine oxydase/hypoxanthine, cytochrome C reduction at 550 nm); type: biochemical; settings: for ability to inhibit the superoxide anion / reduction of cytochrom c (in words): enzymatic system generating superoxide anion
From the text: System of production of superoxide anion:xanthine oxydase/hypoxanthine (absence of iron).
The superoxide anion is a reducing substance. It is more especially able to reduce a substrate, the cytochrome C. Its reduction is followed with ultraviolet spectrophotometry to 550 nm.
The percentage of inhibition is described as follows: […]

murine splenocytes = assay: Immunostimulating power: proliferation of murine splenocytes (tritiated thymidine incorporation); type: cell-based; settings: for stimulation index (IS): mean of three measurements
From the text: Then experimental procedure is extracted from: J. Kunert-Radek, H. Stepien, K. Lyson and M. Pawlikowki--"Effects of calcium channel modulators on the proliferation of mouse spleen lymphocytes in vitro"--Agents and Actions, vol. 29 Nos 3-4 (1990), p. 254-258.
The cell proliferation is followed by the measurement of the incorporation rate of the tritiated thymidine in the cells, expressed in number of desintegrations per mn, deduced from the background noise.
The results obtained with an immunostimulator of reference, the concanavaline A, are given for comparison.
The immunostimulating effect is expressed with a stimulation index (SI). [formula] The values correspond to the mean value of three measurements.

human monocytes = assay: Cell proliferation of a homogenous population of human monocytes (tritiated thymidine incorporation); type: cell-based
From the text: In order to specify the pseudodipeptides mode of action, a second experiment has been carried out on an homogenous population of human monocytes.
Cell proliferation has been evaluated the same way as previously: […]

For `N[C@@H](CCC(=O)O)C(=O)NCCc1c[nH]cn1` [L-glutamyl-histamine, L-Glutamyl-histamine], the “% inhibiton (hydroxyl radical OH.)” value [1] was 0%, the “% of inhibition (superoxide anion, cytochrome C reduction)” value ([2]; 1 mM) was 3,5% and the “% of inhibition (superoxide anion, cytochrome C reduction)” value ([2]; 5 mM) was 14%. The “% of inhibition (superoxide anion, cytochrome C reduction)” value ([2]; 10 mM) was 24%, the “% of inhibition (superoxide anion, cytochrome C reduction)” value ([2]; 20 mM) was 35% and the “ability to inhibit the superoxide anion / reduction of cytochrom c (in words)” value [2] was “strongly inhibit”. For the same compound, the “stimulation index (IS)” value (murine splenocytes; 2.5 μg/ml) was 7.8, the “stimulation index (IS)” value (murine splenocytes; 5.0 μg/ml) was 42.7 and the “stimulation index (IS)” value (murine splenocytes; 10.0 μg/ml) was 42.1. The “stimulation index (IS)” value (murine splenocytes; 25.0 μg/ml) was 5.6, the “concentration of maximal immunostimulating effect” value (murine splenocytes; murine splenocytes) was 5 µg/mL and the “stimulation index (IS)” value (human monocytes; 2.50 μg/ml) was 8.23. For the same compound, the “stimulation index (IS)” value (human monocytes; 5.00 μg/ml) was 39.80, the “stimulation index (IS)” value (human monocytes; 10.00 μg/ml) was 23.50 and the “stimulation index (IS)” value (human monocytes; 25.00 μg/ml) was 2.50. For the same compound, the “average factor of activity versus concanavaline A” value (human monocytes; human monocytes) was 1.34.

In the case of `O=C(NCCc1c[nH]cn1)[C@@H]1CCCN1` [L-prolyl-histamine], the “% inhibiton (hydroxyl radical OH.)” value [1] is reported as 62% and the “ability to inhibit the superoxide anion / reduction of cytochrom c (in words)” value [2] is reported as “do not have the ability to inhibit”.

In the case of `NCCC(=O)N[C@@H](Cc1c[nH]cn1)C(=O)O` [β-alanyl-L-histidine, reference compound], the “% inhibiton (hydroxyl radical OH.)” value [1] is reported as 38% and the “ability to inhibit the superoxide anion / reduction of cytochrom c (in words)” value [2] is reported as “do not have the ability to inhibit”.

With concanavaline A [reference compound] the “stimulation index (IS)” value (murine splenocytes; 2.5 μg/ml) was 8.3, the “stimulation index (IS)” value (murine splenocytes; 5.0 μg/ml) was 33.4 and the “stimulation index (IS)” value (murine splenocytes; 10.0 μg/ml) was 61.5. The “stimulation index (IS)” value (murine splenocytes; 25.0 μg/ml) was 4.3, the “stimulation index (IS)” value (human monocytes; 2.50 μg/ml) was 4.82 and the “stimulation index (IS)” value (human monocytes; 5.00 μg/ml) was 29.60. The “stimulation index (IS)” value (human monocytes; 10.00 μg/ml) was 21.10.
